Data reported in patent publication US20250382344A1, “Soluble GLP1/GIP/NPY2 Receptor Triple Agonists” (Boehringer Ingelheim International GmH, priority 2024, published 2025).
Like-named read-outs stand apart in the source and are kept apart here.

Columns and labels:
hGIPR = molecular target: T1, hGIPR (Homo sapiens, UniProt P48546); assay: hGIPR CreLuc assay in 0.5% and 100% plasma (CHO CRE-luciferase reporter cells); type: cell-based
T1 construct: expressed in transfected cells; host or cells: CHO CRE-luciferase reporter cells
T1 sequence (P48546 22-466): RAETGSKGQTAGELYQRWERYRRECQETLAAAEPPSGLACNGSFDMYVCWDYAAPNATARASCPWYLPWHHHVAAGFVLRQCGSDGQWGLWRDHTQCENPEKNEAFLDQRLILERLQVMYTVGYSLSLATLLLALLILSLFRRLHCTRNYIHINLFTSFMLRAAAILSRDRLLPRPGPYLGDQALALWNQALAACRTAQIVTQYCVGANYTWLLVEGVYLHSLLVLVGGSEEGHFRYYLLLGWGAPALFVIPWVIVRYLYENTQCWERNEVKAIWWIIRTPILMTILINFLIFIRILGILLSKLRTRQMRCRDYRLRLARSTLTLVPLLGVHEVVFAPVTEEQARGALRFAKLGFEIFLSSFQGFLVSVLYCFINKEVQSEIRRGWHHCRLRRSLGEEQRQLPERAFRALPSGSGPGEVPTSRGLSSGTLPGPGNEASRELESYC

[1] = Solubility in 0.1 M phosphate buffer at pH 7; type: physicochemical; details: 0.1 M phosphate buffer at pH 7, 10 mg/mL final peptide concentration, shaking 2 hours at room temperature, peptides as TFA-salts, measured sample pH 6.5-7.0
[2] = 0.5% human plasma, read-out: hGIPR 0.5% hP
[3] = 100% human plasma, read-out: hGIPR 100% hP

| SMILES | EC50 (hGIPR; [2]) [nM] | solubility at 2 h [1] [µg/mL] | EC50 (hGIPR; [3]) [nM] | solubility ([1]; read-out: Solubility) [µg/mL] |
| --- | --- | --- | --- | --- |
| CC[C@H](C)[C@H](NC(=O)[C@H](CC(C)C)NC(=O)[C@H](Cc1c[nH]cn1)NC(=O)[C@H](CCCNC(=N)N)NC(=O)[C@@H](NC(=O)[C@H](Cc1ccccc1)NC(=O)[C@H](C)NC(=O)C(C)(C)NC(=O)[C@H](CCC(N)=O)NC(=O)[C@H](C)NC(=O)[C@H](CCC(N)=O)NC(=O)[C@H](CCC(=O)O)NC(=O)[C@H](CC(=O)O)NC(=O)[C@H](CC(C)C)NC(=O)C(C)(C)NC(=O)[C@@H](NC(=O)[C@H](CO)NC(=O)[C@H](Cc1ccc(O)cc1)NC(=O)[C@H](CC(=O)O)NC(=O)[C@H](CO)NC(=O)[C@@H](NC(=O)[C@H](Cc1ccccc1)NC(=O)[C@@H](NC(=O)CNC(=O)[C@H](CCC(=O)O)NC(=O)C(C)(C)NC(=O)[C@@H](N)Cc1ccc(O)cc1)[C@@H](C)O)[C@@H](C)O)[C@@H](C)CC)C(C)C)C(=O)N[C@@H](CC(N)=O)C(=O)N[C@@H](CCCCNC(=O)[C@@H](N)CCCCNC(=O)[C@@H](N)CCCCNC(=O)CC[C@H](NC(=O)CC[C@H](NC(=O)CC[C@H](NC(=O)CC[C@H](NC(=O)CC[C@H](NC(=O)CCCCCCCCCCCCCCCCCCC(=O)O)C(=O)O)C(=O)O)C(=O)O)C(=O)O)C(=O)O)C(=O)NC(C)(C)C(=O)N[C@H](C(=O)N[C@@H](CCCNC(=N)N)C(=O)N[C@@H](CCC(N)=O)C(=O)N[C@@H](CCCNC(=N)N)C(=O)N[C@@H](Cc1ccc(O)cc1)C(N)=O)[C@@H](C)O [Compound 155, Y-Aib-E-G-T-F-T-S-D-Y-S-I-Aib-L-D-E-Q-A-Q-Aib-A-F-V-R-H-L-I-N-K(1,3)-Aib-T-R-Q-R-Y-NH2.C20DA-gGlu-gGlu-gGlu-gGlu-gGlu-eLys-eLys(1,2)] | 0.7 | 8900 |  |  |
| CC[C@H](C)[C@H](NC(=O)[C@H](CC(C)C)NC(=O)[C@H](Cc1c[nH]cn1)NC(=O)[C@H](CCCNC(=N)N)NC(=O)[C@@H](NC(=O)[C@H](Cc1ccccc1)NC(=O)[C@H](C)NC(=O)C(C)(C)NC(=O)[C@H](CCC(N)=O)NC(=O)[C@H](CCCNC(=N)N)NC(=O)[C@H](CCC(N)=O)NC(=O)[C@H](CCCCN)NC(=O)[C@H](CCC(=O)O)NC(=O)[C@H](CC(C)C)NC(=O)C(C)(C)NC(=O)[C@@H](NC(=O)[C@H](CO)NC(=O)[C@H](Cc1ccc(O)cc1)NC(=O)[C@H](CC(=O)O)NC(=O)[C@H](CO)NC(=O)[C@@H](NC(=O)[C@H](Cc1ccccc1)NC(=O)[C@@H](NC(=O)CNC(=O)[C@H](CCC(=O)O)NC(=O)C(C)(C)NC(=O)[C@@H](N)Cc1ccc(O)cc1)[C@@H](C)O)[C@@H](C)O)[C@@H](C)CC)C(C)C)C(=O)N[C@@H](CC(N)=O)C(=O)N[C@@H](CCCCNC(=O)[C@@H](N)CCCCNC(=O)CC[C@H](NC(=O)CC[C@H](NC(=O)CC[C@H](NC(=O)CC[C@H](NC(=O)CC[C@H](NC(=O)CC[C@H](NC(=O)CCCCCCCCCCCCCCCCC(=O)O)C(=O)O)C(=O)O)C(=O)O)C(=O)O)C(=O)O)C(=O)O)C(=O)NC(C)(C)C(=O)N[C@H](C(=O)N[C@@H](CCCNC(=N)N)C(=O)N[C@@H](CCC(N)=O)C(=O)N[C@@H](CCCNC(=N)N)C(=O)N[C@@H](Cc1ccc(O)cc1)C(N)=O)[C@@H](C)O [Compound 91, Y-Aib-E-G-T-F-T-S-D-Y-S-I-Aib-L-E-K-Q-R-Q-Aib-A-F-V-R-H-L-I-N-K(1,3)-Aib-T-R-Q-R-Y-NH2.C18DA-gGlu-gGlu-gGlu-gGlu-gGlu-Glu-eLys(1,2)] | 0.8 |  | 14.4 | 2200 |

The next molecules have a lower EC50 (hGIPR; [2]) than those just listed; values first:

| EC50 (hGIPR; [2]) [nM] | solubility at 2 h [1] [µg/mL] | EC50 (hGIPR; [3]) [nM] | solubility ([1]; read-out: Solubility) [µg/mL] | SMILES |
| --- | --- | --- | --- | --- |
| 0.5 | 9300 | 11.5 |  | CC[C@H](C)[C@H](NC(=O)[C@H](CC(C)C)NC(=O)[C@H](Cc1c[nH]cn1)NC(=O)[C@H](CCCNC(=N)N)NC(=O)[C@@H](NC(=O)[C@H](Cc1ccccc1)NC(=O)[C@H](C)NC(=O)C(C)(C)NC(=O)[C@H](CCC(N)=O)NC(=O)[C@H](C)NC(=O)[C@H](CCC(N)=O)NC(=O)[C@H](CCC(=O)O)NC(=O)[C@H](CC(=O)O)NC(=O)[C@H](CC(C)C)NC(=O)C(C)(C)NC(=O)[C@@H](NC(=O)[C@H](CO)NC(=O)[C@H](Cc1ccc(O)cc1)NC(=O)[C@H](CC(=O)O)NC(=O)[C@H](CO)NC(=O)[C@@H](NC(=O)[C@H](Cc1ccccc1)NC(=O)[C@@H](NC(=O)CNC(=O)[C@H](CCC(=O)O)NC(=O)C(C)(C)NC(=O)[C@@H](N)Cc1ccc(O)cc1)[C@@H](C)O)[C@@H](C)O)[C@@H](C)CC)C(C)C)C(=O)N[C@@H](CC(N)=O)C(=O)N[C@@H](CCCCNC(=O)[C@@H](N)CCCCNC(=O)CC[C@H](NC(=O)CC[C@H](NC(=O)CC[C@H](NC(=O)CC[C@H](NC(=O)CC[C@H](NC(=O)CCCCCCCCCCCCCCCCCCC(=O)O)C(=O)O)C(=O)O)C(=O)O)C(=O)O)C(=O)O)C(=O)NC(C)(C)C(=O)N[C@H](C(=O)N[C@@H](CCCNC(=N)N)C(=O)N[C@@H](CCC(N)=O)C(=O)N[C@@H](CCCNC(=N)N)C(=O)N[C@@H](Cc1ccc(O)cc1)C(N)=O)[C@@H](C)O [Compound 138, Y-Aib-E-G-T-F-T-S-D-Y-S-I-Aib-L-D-E-Q-A-Q-Aib-A-F-V-R-H-L-I-N-K(1,3)-Aib-T-R-Q-R-Y-NH2.C20DA-gGlu-gGlu-gGlu-gGlu-gGlu-eLys(1,2)] |
| 0.2 | 9600 |  |  | CC[C@H](C)[C@H](NC(=O)[C@H](CC(C)C)NC(=O)[C@H](Cc1c[nH]cn1)NC(=O)[C@H](CCCNC(=N)N)NC(=O)[C@@H](NC(=O)[C@H](Cc1ccccc1)NC(=O)[C@H](C)NC(=O)C(C)(C)NC(=O)[C@H](CCC(N)=O)NC(=O)[C@H](C)NC(=O)[C@H](CCC(N)=O)NC(=O)[C@H](CCCCN)NC(=O)[C@H](CCC(=O)O)NC(=O)[C@H](CC(C)C)NC(=O)C(C)(C)NC(=O)[C@@H](NC(=O)[C@H](CO)NC(=O)[C@H](Cc1ccc(O)cc1)NC(=O)[C@H](CC(=O)O)NC(=O)[C@H](CO)NC(=O)[C@@H](NC(=O)[C@H](Cc1ccccc1)NC(=O)[C@@H](NC(=O)CNC(=O)[C@H](CCC(=O)O)NC(=O)C(C)(C)NC(=O)[C@@H](N)Cc1ccc(O)cc1)[C@@H](C)O)[C@@H](C)O)[C@@H](C)CC)C(C)C)C(=O)N[C@@H](CC(N)=O)C(=O)N[C@@H](CCCCNC(=O)[C@@H](N)CCCCNC(=O)CC[C@H](NC(=O)CC[C@H](NC(=O)CC[C@H](NC(=O)CC[C@H](NC(=O)CC[C@H](NC(=O)CC[C@H](NC(=O)CCCCCCCCCCCCCCCCC(=O)O)C(=O)O)C(=O)O)C(=O)O)C(=O)O)C(=O)O)C(=O)O)C(=O)N[C@@H](C)C(=O)N[C@H](C(=O)N[C@@H](CCCNC(=N)N)C(=O)N[C@@H](CCC(N)=O)C(=O)N[C@@H](CCCNC(=N)N)C(=O)N[C@@H](Cc1ccc(O)cc1)C(N)=O)[C@@H](C)O [Compound 159, Y-Aib-E-G-T-F-T-S-D-Y-S-I-Aib-L-E-K-Q-A-Q-Aib-A-F-V-R-H-L-I-N-K(1,3)-A-T-R-Q-R-Y-NH2.C18DA-gGlu-gGlu-gGlu-gGlu-gGlu-gGlu-eLys(1,2)] |
| 0.3 | 4200 | 3.4 |  | CC[C@H](C)[C@H](NC(=O)[C@H](CC(C)C)NC(=O)[C@H](Cc1c[nH]cn1)NC(=O)[C@H](CCCNC(=N)N)NC(=O)[C@@H](NC(=O)[C@H](Cc1ccccc1)NC(=O)[C@H](C)NC(=O)C(C)(C)NC(=O)[C@H](CCC(N)=O)NC(=O)[C@H](C)NC(=O)[C@H](CCC(N)=O)NC(=O)[C@H](CCCCN)NC(=O)[C@H](CCC(=O)O)NC(=O)[C@H](CC(C)C)NC(=O)C(C)(C)NC(=O)[C@@H](NC(=O)[C@H](CO)NC(=O)[C@H](Cc1ccc(O)cc1)NC(=O)[C@H](CC(=O)O)NC(=O)[C@H](CO)NC(=O)[C@@H](NC(=O)[C@H](Cc1ccccc1)NC(=O)[C@@H](NC(=O)CNC(=O)[C@H](CCC(=O)O)NC(=O)C(C)(C)NC(=O)[C@@H](N)Cc1ccc(O)cc1)[C@@H](C)O)[C@@H](C)O)[C@@H](C)CC)C(C)C)C(=O)N[C@@H](CC(N)=O)C(=O)N[C@@H](CCCCNC(=O)CC[C@H](NC(=O)CC[C@H](NC(=O)CC[C@H](NC(=O)CC[C@H](NC(=O)CC[C@H](NC(=O)CC[C@H](NC(=O)[C@H]1CC[C@H](CNC(=O)CCCCCCCCCCCCCCCCCCC(=O)O)CC1)C(=O)O)C(=O)O)C(=O)O)C(=O)O)C(=O)O)C(=O)O)C(=O)NC(C)(C)C(=O)N[C@H](C(=O)N[C@@H](CCCNC(=N)N)C(=O)N[C@@H](CCC(N)=O)C(=O)N[C@@H](CCCNC(=N)N)C(=O)N[C@@H](Cc1ccc(O)cc1)C(N)=O)[C@@H](C)O [Compound 133, Y-Aib-E-G-T-F-T-S-D-Y-S-I-Aib-L-E-K-Q-A-Q-Aib-A-F-V-R-H-L-I-N-K(1,3)-Aib-T-R-Q-R-Y-NH2.C20DA-TRX-gGlu-gGlu-gGlu-gGlu-gGlu-gGlu(1,2)] |
